Measurements taken from US11299487B2, “Compounds and compositions as modulators of TLR signaling” (Neuropore Therapies, Inc., priority 2019, dated 2022).
Like-named read-outs stand apart in the source and are kept apart here.

Assays:
Format in all cases: cell-based
human TLR2 [1] = target: T1, human TLR2 (Homo sapiens, UniProt O60603); experiment: HEK-Blue hTLR2 antagonism assay (SEAP reporter) with agonist Pam3CSK4 (TLR1/2 agonist); details: HEK-Blue hTLR2 cells, ~3×EC50 Pam3CSK4, 18 h, SEAP OD 655 nm, 8-point dilutions
T1 construct: host or cells: HEK-Blue hTLR2 (HEK-293)
T1 sequence (O60603 21-784): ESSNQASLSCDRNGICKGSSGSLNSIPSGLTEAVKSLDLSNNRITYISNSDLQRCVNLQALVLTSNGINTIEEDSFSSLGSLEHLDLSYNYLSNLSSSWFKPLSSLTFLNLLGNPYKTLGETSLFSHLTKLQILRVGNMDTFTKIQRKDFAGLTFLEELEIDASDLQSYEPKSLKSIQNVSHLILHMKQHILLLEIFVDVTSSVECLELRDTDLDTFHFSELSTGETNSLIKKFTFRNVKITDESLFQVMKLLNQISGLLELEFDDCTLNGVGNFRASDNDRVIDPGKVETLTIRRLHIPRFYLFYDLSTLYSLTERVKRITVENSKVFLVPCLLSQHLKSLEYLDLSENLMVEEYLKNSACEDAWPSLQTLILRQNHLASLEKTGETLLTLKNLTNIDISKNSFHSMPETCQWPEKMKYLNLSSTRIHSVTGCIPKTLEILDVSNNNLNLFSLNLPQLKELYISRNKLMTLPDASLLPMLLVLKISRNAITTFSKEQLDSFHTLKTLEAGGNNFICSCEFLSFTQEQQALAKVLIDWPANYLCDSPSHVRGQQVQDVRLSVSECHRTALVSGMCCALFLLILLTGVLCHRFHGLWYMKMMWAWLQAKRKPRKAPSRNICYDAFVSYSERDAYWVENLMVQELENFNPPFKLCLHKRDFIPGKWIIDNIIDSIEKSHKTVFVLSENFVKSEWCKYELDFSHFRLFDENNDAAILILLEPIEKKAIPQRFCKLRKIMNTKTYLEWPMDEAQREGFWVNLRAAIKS

human TLR2 [2] = target: T1, human TLR2; experiment: HEK-Blue hTLR2 antagonism assay (SEAP reporter) with agonist Pam2CSK4 (TLR2/6 agonist); details: HEK-Blue hTLR2 cells, ~3×EC50 Pam2CSK4, 18 h, SEAP OD 655 nm, 8-point dilutions
human TLR9 = target: T2, human TLR9 (Homo sapiens, UniProt Q9NR96); experiment: HEK-Blue hTLR9 assay (SEAP reporter) with agonist ODN 2006; details: HEK-Blue hTLR9 cells, ~3×EC50 ODN 2006, 18 h, exact values 8-point dilutions, approximate (~ or <) 4-point dilutions, read-out: ~IC50 (μM) with ODN2006
T2 construct: host or cells: HEK-Blue hTLR9 (HEK-293)
T2 sequence (Q9NR96 26-1032): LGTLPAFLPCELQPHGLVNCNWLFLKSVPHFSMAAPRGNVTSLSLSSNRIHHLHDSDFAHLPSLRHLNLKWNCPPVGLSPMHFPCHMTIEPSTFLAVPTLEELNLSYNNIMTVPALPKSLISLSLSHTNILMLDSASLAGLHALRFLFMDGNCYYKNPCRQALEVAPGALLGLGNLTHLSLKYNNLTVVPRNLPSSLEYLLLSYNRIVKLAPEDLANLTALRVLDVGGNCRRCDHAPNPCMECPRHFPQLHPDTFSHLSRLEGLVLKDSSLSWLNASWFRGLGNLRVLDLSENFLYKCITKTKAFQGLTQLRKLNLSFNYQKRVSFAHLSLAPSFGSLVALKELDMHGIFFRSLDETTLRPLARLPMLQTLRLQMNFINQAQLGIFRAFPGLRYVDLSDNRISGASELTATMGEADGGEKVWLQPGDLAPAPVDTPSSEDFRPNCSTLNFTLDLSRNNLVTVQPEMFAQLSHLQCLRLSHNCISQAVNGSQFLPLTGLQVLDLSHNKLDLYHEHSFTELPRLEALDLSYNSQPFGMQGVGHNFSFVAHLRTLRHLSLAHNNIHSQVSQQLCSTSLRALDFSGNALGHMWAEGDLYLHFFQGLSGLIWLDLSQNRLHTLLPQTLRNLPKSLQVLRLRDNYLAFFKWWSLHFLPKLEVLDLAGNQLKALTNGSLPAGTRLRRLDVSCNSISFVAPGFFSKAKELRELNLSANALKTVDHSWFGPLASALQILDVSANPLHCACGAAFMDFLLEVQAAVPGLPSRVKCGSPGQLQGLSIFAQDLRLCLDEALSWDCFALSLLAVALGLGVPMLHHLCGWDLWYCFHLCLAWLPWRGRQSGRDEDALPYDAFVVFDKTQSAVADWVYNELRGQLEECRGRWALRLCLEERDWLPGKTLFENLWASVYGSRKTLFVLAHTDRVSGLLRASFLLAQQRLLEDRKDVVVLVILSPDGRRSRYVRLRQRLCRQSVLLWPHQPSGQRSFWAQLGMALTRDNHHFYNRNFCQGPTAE
Description: Synthetic ODNs (ODN 2006 (ODN7909), class B CpG oligonucleotide, TLR9 agonist) was obtained from InvivoGen and was dissolved in endotoxin-free water to a concentration 500 μM, vortexed until complete solubilization, and stored in aliquots at −20° C. Prior to addition to cells, an aliquot of the dissolved ligand was vortexed shortly and then was diluted in medium to 50 μM. The EC50 of the agonist for each assay run was determined by using 3-fold dilutions from the starting concentration 10 μM.
Test compounds were solubilized fresh to 10-20 mM stocks in DMSO and sonicated for 5-10 minutes in a water bath sonicator. Serial dilutions were prepared in DMSO, and then diluted in medium. The final concentration of DMSO used in the assay was 1%.
HEK-Blue hTLR9 reporter cells (InvivoGen) are HEK-293 cells stably expressing both the human TLR9 gene and a secreted embryonic alkaline phosphatase (SEAP) reporter construct downstream of NFκB promotor sites. HEK-Blue hTLR9 cells were cultured according to manufacturer's protocol using Dulbecco's Modified Eagle Medium (DMEM; Gibco) containing 1× GlutaMax (Gibco), 10% heat-inactivated Fetal Bovine Serum (Gibco), Pen-Strep (50 U/mL penicillin, 50 μg/mL streptomycin, Gibco), 100 μg/mL Normocin (InvivoGen), and the selective antibiotics, 10 μg/mL Blasticidin (InvivoGen), and 100 μg/mL Zeocin (InvivoGen). Quanti-Blue reagent (InvivoGen) for detection and quantification of secreted alkaline phosphatase was dissolved in 100 mL of endotoxin-free water, warmed to 37° C. for 30 minutes and then filtered using a 0.2 μm membrane.
On day 1, 50 μL of each test compound dilution in duplicates or a vehicle control was added to each well of a 96-well plate followed by addition of 150 μL of HEK-Blue hTLR9 cell suspension (1×10^5 cells/well) and incubated at 37° C./5% CO2 for 2 h. Next, 50 μL of an approximate 3×EC50 concentration of TLR9 agonist, ODN 2006, was added to the wells containing test compounds or the vehicle control. The plates were then incubated at 37° C./5% CO2 for 18 h. For each assay run, vehicle-treated HEK-Blue hTLR9 cells were treated with serial dilutions of agonist to determine EC50 values for the respective run.
On day 2, secreted alkaline phosphatase (SEAP) activity was detected in cell culture supernatants. In brief, 30 μL was collected from each well and transferred to a 96-well plate. Next, 200 μL of Quanti-Blue detection reagent was added to each well. Plates were incubated at 37° C. for 60 min. and SEAP activity was assessed by spectrophotometer OD reading at 655 nm. Table A and Table B show the activities of the compounds tested in HEK-Blue hTLR9 cells against ODN 2006. The activities of the compounds against ODN 2006 are presented as IC50 values which were defined as concentrations of the compounds where percent inhibition of the signal induced by agonist is equal to 50. Exact IC50 values were calculated based on 8-point dilutions for each compound. Approximate IC50 values (˜ or <) were calculated based on 4-point dilutions for each compound.

IC50 (human TLR2 [1]; Table A) | IC50 (human TLR2 [2]; Table A) | IC50 (human TLR9; Table A) | IC50 (human TLR2 [1]; Table B) | IC50 (human TLR2 [2]; Table B) | IC50 (human TLR9; Table B) | SMILES
 |  |  | 1.5 µM | 1.3 µM | > 33 µM | O=Cc1cc(C(=O)Nc2ccc(C(F)(F)F)c(Cl)c2)cc(F)c1O [Compound B14, N-(3-Chloro-4-(trifluoromethyl)phenyl)-3-fluoro-5-formyl-4-hydroxybenzamide]
 |  |  | 0.6 µM | 1.2 µM | < 1.2 µM | O=Cc1cc(C(=O)Nc2ccc(N3C[C@H]4CCC[C@H]4C3)cc2)cc(F)c1O [Compound B76, 3-fluoro-5-formyl-N-(4-((3aR,6aS)-hexahydrocyclopenta[c]pyrrol-2(1H)-yl)phenyl)-4-hydroxybenzamide]
 |  |  | 1.7 µM | 2.6 µM | ~2.5 µM | O=Cc1cc(C(=O)Nc2cccc(N3CCCC3)c2)cc(F)c1O [Compound B71, 3-fluoro-5-formyl-4-hydroxy-N-(3-(pyrrolidin-1-yl)phenyl)benzamide]
 |  |  | 10.6 µM | 12 µM | < 1.2 µM | O=Cc1cc(C(=O)Nc2ccccc2)cc(F)c1O [Compound B11, 3-fluoro-5-formyl-4-hydroxy-N-phenylbenzamide]
 |  |  | 20.8 µM | 35.7 µM | > 33 µM | COc1cc(C#Cc2ccc(N3CCCC3)cc2)cc(O)c1C=O [Compound B7, 2-hydroxy-6-methoxy-4-((4-(pyrrolidin-1-yl)phenyl)ethynyl)benzaldehyde]
 |  |  | 0.7 µM | 1.1 µM | < 1.2 µM | O=Cc1cc(C#Cc2ccc(N3CCCC3)cc2)cc(F)c1O [Compound B1, 3-fluoro-2-hydroxy-5-((4-(pyrrolidin-1-yl)phenyl)ethynyl)benzaldehyde]
 |  |  | 2 µM | 2.7 µM | 0.7 µM | O=Cc1cc(C(=O)Nc2ccc(N3CCCC3)cc2)cc(F)c1O [Compound B12, 3-fluoro-5-formyl-4-hydroxy-N-(4-(pyrrolidin-1-yl)phenyl)benzamide]
 |  |  | 0.4 µM | 0.5 µM | 0.1 µM | CC1(C)CN(c2ccc(NC(=O)c3cc(F)c(O)c(C=O)c3)cn2)c2ccccc21 [Compound B87, N-(6-(3,3-dimethylindolin-1-yl)pyridin-3-yl)-3-fluoro-5-formyl-4-hydroxybenzamide]

More lines, now with the values behind:

SMILES | IC50 (human TLR2 [1]; Table A) | IC50 (human TLR2 [2]; Table A) | IC50 (human TLR9; Table A) | IC50 (human TLR2 [1]; Table B) | IC50 (human TLR2 [2]; Table B) | IC50 (human TLR9; Table B)
O=Cc1cc(-c2nc(-c3ccccc3)cs2)cc(F)c1O [Compound A93, 3-fluoro-2-hydroxy-5-(4-phenylthiazol-2-yl)benzaldehyde] | 2.1 µM | 4.8 µM | < 1.2 µM |  |  | 
O=Cc1cc(-c2nnc(-c3ccccc3)s2)cc(F)c1O [Compound A94, 3-fluoro-2-hydroxy-5-(5-phenyl-1,3,4-thiadiazol-2-yl)benzaldehyde] | 9.2 µM | 14.8 µM | < 1.2 µM |  |  | 
O=Cc1cc(-c2ccn(-c3ccccc3)n2)cc(F)c1O [Compound A26, 3-fluoro-2-hydroxy-5-(1-phenyl-1H-pyrazol-3-yl)benzaldehyde] | 2.7 µM | 2.9 µM | ~3 µM |  |  | 
O=Cc1cc(-c2nsc(-c3ccc(N4CCCC4)cc3)n2)cc(F)c1O [Compound A61, 3-fluoro-2-hydroxy-5-(5-(4-(pyrrolidin-1-yl)phenyl)-1,2,4-thiadiazol-3-yl)benzaldehyde] | 1 µM | 3.2 µM | < 1.2 µM |  |  | 
O=Cc1cc(-c2cnn(-c3ccc(N4CCCC4)cc3)c2)cc(F)c1O [Compound A19, 3-fluoro-2-hydroxy-5-(1-(4-(pyrrolidin-1-yl)phenyl)-1H-pyrazol-4-yl)benzaldehyde] | 0.5 µM | 0.5 µM | < 1.2 µM |  |  | 
O=Cc1cc(-c2nc(-c3ccccc3)ns2)cc(F)c1O [Compound A95, 3-fluoro-2-hydroxy-5-(3-phenyl-1,2,4-thiadiazol-5-yl)benzaldehyde] | 2.3 µM | 3 µM | ~1.4 µM |  |  | 
COc1cc(-c2cnn(-c3ccccc3)c2)cc(C=O)c1O [Compound A1, 2-hydroxy-3-methoxy-5-(1-phenyl-1H-pyrazol-4-yl)benzaldehyde] | 0.9 µM | 2.2 µM | ~2 µM |  |  | 
O=Cc1cc(-c2cn(-c3ccc(N4CCCC4)cc3)nn2)cc(F)c1O [Compound A43, 3-fluoro-2-hydroxy-5-(1-(4-(pyrrolidin-1-yl)phenyl)-1H-1,2,3-triazol-4-yl)benzaldehyde] | 1.1 µM | 1.1 µM | < 1.2 µM |  |  | 
O=Cc1cc(-c2csc(-c3ccc(N4CCCC4)cc3)c2)cc(F)c1O [Compound A52, 3-fluoro-2-hydroxy-5-(5-(4-(pyrrolidin-1-yl)phenyl)thiophen-3-yl)benzaldehyde] | 0.2 µM | 0.7 µM | < 1.2 µM |  |  | 
O=Cc1cc(-c2cnc(-c3ccccc3)o2)cc(F)c1O [Compound A88, 3-fluoro-2-hydroxy-5-(2-phenyloxazol-5-yl)benzaldehyde] | 1.3 µM | 2.1 µM | ~3 µM |  |  | 
O=Cc1cc(-c2nc(-c3ccc(N4CCCC4)cc3)ns2)cc(F)c1O [Compound A62, 3-fluoro-2-hydroxy-5-(3-(4-(pyrrolidin-1-yl)phenyl)-1,2,4-thiadiazol-5-yl)benzaldehyde] | 0.4 µM | 0.7 µM | 0.2 µM |  |  | 
O=Cc1cc(-c2nc(-c3ccccc3)n[nH]2)cc(F)c1O [Compound A96, 3-fluoro-2-hydroxy-5-(3-phenyl-1H-1,2,4-triazol-5-yl)benzaldehyde] | 8.8 µM | 12.1 µM | ~6.3 µM |  |  | 
COCCCn1cc(-c2cc(C=O)c(O)c(OC)c2)cn1 [Compound A7, 2-hydroxy-3-methoxy-5-(1-(3-methoxypropyl)-1H-pyrazol-4-yl)benzaldehyde] | 42.3 µM | 36.8 µM | > 33 µM |  |  | 
